Our source for the Kd values is ChEMBL document CHEMBL1145522, “Recognition of trimethyllysine by a chromodomain is not driven by the hydrophobic effect” (Proc Natl Acad Sci U S A, 2007).

This experiment can be described thus: Binding affinity to Drosophila HP1 chromodomain by fluorescence polarization assay.

On to `C[C@H](N)C(=O)N[C@@H](CCCNC(=N)N)C(=O)N[C@H](C(=O)N[C@@H](CCCCN)C(=O)N[C@@H](CCC(N)=O)C(=O)N[C@H](C(=O)N[C@@H](C)C(=O)N[C@@H](CCCNC(=N)N)C(=O)N[C@@H](CCCCN)C(=O)N[C@@H](CO)C(=O)N[C@H](C(=O)NCC(=O)NCC(=O)N[C@@H](CCCCN)C(=O)N[C@@H](C)C(=O)N[C@@H](Cc1ccc(O)cc1)C(=O)O)[C@@H](C)O)[C@@H](C)O)[C@@H](C)O`, for which the Kd was > 1000 µM.
